The text below walks through data of patent US6362166B1, “Antipicornaviral compounds and methods for their use and preparation” (Agouron Pharmaceuticals, Inc., priority 1996, dated 2002).

Data set [1] concerns the target T1, Recombinant Rhinovirus 3C protease (RVP) serotype-14 (Human rhinovirus 14, UniProt P03303).
T1 construct: Recombinant Rhinovirus 3C proteases from serotypes 14, 16, 2 or 89; made in house
The data set can be described thus: Inhibition of Rhinovirus Protease (fluorescence resonance energy transfer assay), serotype 14. It counts as biochemical, human rhinovirus (HRV). The conditions noted are these: RVP serotype-14; for kobs/I: progress curves in enzyme start experiments; for Ki: 10 minute preincubation, substrate start, read-out: INHIB (Ki); for INHIB (percent inhibition): 10 minute preincubation with 50 nM RVP. As to the method: Stock solution (50 mM, in DMSO) of various compounds were prepared; dilutions were in the same solvent. […] Assays contained 2% DMSO, 50 mM tris pH 7.6, 1 mM EDTA, a compound at the indicated concentrations, approximately 1 μM substrate, and 50-100 nM protease. […] The kobs/I values were obtained from reactions initiated by addition of enzyme rather than substrate. RVP activity is measured in the fluorescence resonance energy transfer assay. […] In the uncleaved peptide, the EDANS fluorescence was quenched by the proximal DABCYL moeity. When the peptide was cleaved, the quenching was relieved, and activity was measured as an increase in fluorescence signal.
In the above table, all data is RVP serotype-14 unless otherwise noted in parentheses. All strains of human rhinovirus (HRV) were purchased from American Type Culture Collection (ATCC), except for serotype 14, which was produced from the infectious cDNA clone constructed and supplied to us by Dr. Roland Rueckert at the Institute for Molecular Virology, University of Wisconsin, Madison, Wisc. […] The data in the column designated kobs/I was measured from progress curves in enzyme start experiments.

The test system of data set [2] is HRV-14. As to the kind of experiment: Antirhinoviral HI-HeLa Cell Culture Assay (Cell Protection Assay, XTT dye reduction). The data set is classed as cell-based, human rhinovirus (HRV) serotype-14. The note with it: HI-HeLa cells infected with HRV-14, m.o.i. 0.13; two days; XTT; read-out: EC50. As to the method: In the Cell Protection Assay, the ability of compounds to protect cells against HRV infection was measured by the XTT dye reduction method. This method is described in Weislow, O. S., R. Kiser, D. L. Fine, J. Bader, R. H. Shoemaker, and M. R. Boyd, J. Natl. Cancer Inst. 1989, 81, 577-586, which is incorporated herein by reference.
(§1) HI-HeLa cells were infected with HRV-14 at a multiplicity of infection (m.o.i.) of 0.13 (virus particles/cell) or mock-infected with medium only. Infected or mock-infected cells were resuspended at 8×10^5 cells per mL and incubated with appropriate concentration of compounds of formulas I and II. Two days later, XTT/PMS was added to test plates and the amount of formazan produced was quantified spectrophotometrically at 450/650 nm. […] The therapeutic index (TI) was calculated by dividing the CC50 by the EC50.
(§2) All strains of human rhinovirus (HRV) for use in this assay were purchased from American Type Culture Collection (ATCC), except for HRV serotype-14, which was produced from the infectious cDNA clone, constructed and supplied to us by Dr. Roland Rueckert at the Institue for Molecular Virology, University of Wisconsin, Madison, Wisc. HRV stocks were propagated, and antiviral assays were perforemd in HI-HeLa cells (ATCC). Cells were grwon in Minimal Essential Medium, available from Life Technologies, with 10% fetal bovine serum.
The compounds were tested against control compounds WIN 51711, WIN 52084, and WIN 54954, all obtained from Sterling-Winthrop Pharmaceuticals, and control compound Pirodavir, obtained from Janssen Pharmaceuticals.
In general terms: Tetrazolium assays rely on reduction of a dye to a coloured formazan, in cell work by metabolically active cells.

For data set [3], the system named is HI-HeLa cells. The data set can be described thus: Cytotoxicity in mock-infected HI-HeLa cells (antirhinoviral assay, XTT). The data set is classed as cell-based. As to the method:
as §1, §2

Setting [4] is: mock-infected HI-HeLa cells, two days, XTT, read-out: CC50.

Where two headings read alike, the source gives them in different places.

T1 sequence (P03303 1538-1719): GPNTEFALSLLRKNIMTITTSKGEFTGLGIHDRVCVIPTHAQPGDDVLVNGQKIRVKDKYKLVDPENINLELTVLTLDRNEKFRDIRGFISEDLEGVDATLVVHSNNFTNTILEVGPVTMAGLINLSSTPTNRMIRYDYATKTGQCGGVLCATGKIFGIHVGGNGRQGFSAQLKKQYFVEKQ

As a reminder, the EC50 is the concentration that produces a half-maximal response. By CC50 is commonly meant the concentration giving 50% cytotoxicity. Regarding `CCOC(=O)/C=C/[C@H](CCC(N)=O)NC(=O)[C@H](Cc1ccc(O)cc1)NC(=O)[C@H](CC(C)C)NC(=O)OCc1ccccc1` [Compound 53], the kobs/I in data set [1] is 11,320 M-1 sec-1. Also, the EC50 in data set [2] was found to be 5.3 µM. In addition, the CC50 in data set [3] is greater than 320 µM.
For `CCOC(=O)/C=C/[C@H](CCC(N)=O)NC(=O)[C@H](Cc1ccc(C(N)=O)cc1)NC(=O)[C@H](CC(C)C)NC(=O)OCc1ccccc1` [Compound 133], the kobs/I in data set [1] is given as 9,600 M-1 sec-1. For the same molecule, the EC50 in data set [2] was greater than 177 µM. The CC50 in data set [3] was determined as 177 µM.
On to `CC(C)C[C@H](NC(=O)OCc1ccccc1)C(=O)N[C@@H](Cc1ccccc1)C(=O)N[C@H](/C=C/C(=O)N1CCCO1)CCC(N)=O` [Compound 79], for which the kobs/I in data set [1] is recorded as 13,900 M-1 sec-1. The EC50 in data set [2] turned out to be 45 µM. The CC50 in data set [3] (setting [4]) is greater than 320 µM.
`CC(C)C[C@H](NC(=O)OCc1ccccc1)C(=O)N[C@@H](Cc1ccccc1)C(=O)N[C@H](/C=C/C(=O)c1ccc2c(c1)OCO2)CCC(N)=O` [Compound 46]: in data set [1], the kobs/I is listed as 120,000 M-1 sec-1. In addition, the EC50 in data set [2] turned out to be 3.2 µM. Besides, the CC50 in data set [3] worked out at 45 µM.
Regarding `CC(C)C[C@H](NC(=O)OCc1ccccc1)C(=O)N[C@@H](Cc1ccccc1)C(=O)N[C@H](/C=C/C(=O)c1ccc(C#N)cc1)CCC(N)=O` [Compound 80], the kobs/I in data set [1] is 200,000 M-1 sec-1. Also, the EC50 in data set [2] turned out to be 50 µM. Besides, the CC50 in data set [3] (setting [4]) was greater than 320 µM.
The matching figures for `CCOC(=O)/C(C)=C/[C@H](CCC(N)=O)NC(=O)[C@H](Cc1ccc(C)cc1)NC(=O)[C@@H](NC(=O)SC1CCCC1)C(C)(C)C` [Compound 175, Ethyl-2-Methyl-3-[Cyclopentylthiocarbonyl-L-α-(t-Butyl-Gly)-L-(4-Me-Phe)-L-Gln]-E-Propenoate]: 124,000 M-1 sec-1, 0.18 µM and greater than 100 µM.
As a reminder, the Ki is the equilibrium dissociation constant of an inhibitor or competing ligand from its target. Turning to `CC(C)C[C@H](NC(=O)OCc1ccccc1)C(=O)N[C@@H](Cc1ccccc1)C(=O)N[C@H](/C=C/C(=O)OCC1CCCC1)CCC(N)=O` [Compound 19, Cyclopentylmethyl-3-(CBZ-L-Leu-L-Phe-L-Gln)-E-Propenoate], in data set [1], the inhibitory constant (Ki) came out at 35 µM and the kobs/I is given as 7,900 M-1 sec-1. For the same molecule, the EC50 in data set [2] worked out at 1.35 µM. In data set [3], this molecule had a CC50 greater than 100 µM.
Take `CC(C)C[C@H](NC(=O)OCc1ccccc1)C(=O)N[C@@H](Cc1ccccc1)C(=O)N[C@H](/C=C/C(=O)n1cccc1)CCC(N)=O` [Compound 66]: the kobs/I in data set [1] is reported as 400,000 M-1 sec-1. The EC50 in data set [2] was 1.4 µM. Besides, the midpoint of cytotoxicity in data set [3], the CC50, lay at 6.3 µM.
As to `CCOC(=O)/C=C/[C@H](CCC(N)=O)NC(=O)[C@H](Cc1ccccc1)NC(=O)[C@H](CC(C)C)NC(=O)SC1CCCC1` [Compound 182], the kobs/I in data set [1] is 114,360 M-1 sec-1. Further, the EC50 in data set [2] came to 0.18 µM. In data set [3], this molecule registered a 50% cytotoxic concentration (CC50) greater than 100 µM.
Consider `CC(C)C[C@H](NC(=O)OCc1ccccc1)C(=O)N[C@@H](Cc1ccccc1)C(=O)N[C@H](/C=C/C(=O)N1CCCCO1)CCC(N)=O` [Compound 84], for which the kobs/I in data set [1] is listed as 18,650 M-1 sec-1. Besides, the EC50 in data set [2] worked out at 16 µM. Further, the CC50 in data set [3] (setting [4]) was greater than 320 µM.
For `CCOC(=O)C=CC(CCC(N)=O)NC(=O)C(Cc1ccccc1)NC(=O)C(NC(=O)SC1CCCC1)C(C)(C)[S+](C)[O-]` (mixture of isomers) [Compound 179, Ethyl-3-(Cyclopentylthiocarbonyl-L-[S(O)-Me-Pen]-L-Phe-L-Gln)-E-Propenoate], in data set [1], the Ki came out at 0.36 µM and the kobs/I is 300,000 M-1 sec-1. Also, the EC50 in data set [2] worked out at 1.78 µM. In data set [3], this molecule showed a CC50 greater than 100 µM.
Regarding `CCOC(=O)/C=C/[C@H](CCC(N)=O)NC(=O)[C@@H](NC(=O)[C@H](CC(C)C)NC(=O)OCc1ccccc1)C(C)O` (stereo partly shown) [Compound 134], the kobs/I in data set [1] is reported as 1,769 M-1 sec-1. The EC50 in data set [2] came out at 56.2 µM. The CC50 in data set [3] was greater than 320 µM.
Turning to `CC(C)C[C@H](NC(=O)OCc1ccccc1)C(=O)N[C@@H](Cc1ccccc1)C(=O)N[C@H](/C=C/C(=O)Nc1ccccc1)CCC(N)=O` [Compound 59], in data set [1], the Ki was found to be 2 µM and the kobs/I stood at 200 M⁻¹ s⁻¹. In data set [2], the half-maximal effective concentration (EC50) was greater than 320 µM. For the same molecule, in data set [3] (setting [4]), the CC50 is greater than 320 µM.
On to `CCOC(=O)/C=C/[C@H](CNC(N)=O)NC(=O)[C@H](Cc1ccccc1)NC(=O)[C@H](CC(C)C)NC(=O)OCc1ccccc1` [Compound 16, Ethyl-3-[CBZ-L-Leu-L-Phe-L-(N-carbamyl-amino)-Ala]-E-Propenoate], for which, in data set [1] ([…] compound), the “INHIB (percent inhibition)” value was 40(0.25) percent. In addition, the kobs/I in data set [1] was 3,500 M-1 sec-1. The EC50 in data set [2] stood at 32 µM. The CC50 in data set [3] was greater than 100 µM.
In the case of `COc1ccc(C(=O)/C=C/[C@H](CCC(N)=O)NC(=O)[C@H](Cc2ccccc2)NC(=O)[C@H](CC(C)C)NC(=O)OCc2ccccc2)cc1` [Compound 42], the kobs/I in data set [1] is on record as 150,000 M-1 sec-1. In addition, the EC50 in data set [2] is 22.4 µM. The CC50 in data set [3] turned out to be 100 µM.
As for `CC(C)C[C@H](NC(=O)OCc1ccccc1)C(=O)N[C@@H](Cc1ccccc1)C(=O)N[C@H](/C=C/S(C)(=O)=O)CCC(N)=O` [Compound 9, Methyl-[2-(CBZ-L-Leu-L-Phe-L-Gln)-E-Vinyl]Sulfone], the “INHIB (percent inhibition)” value in data set [1] (1 μM compound) is 20(1) percent. Also, the kobs/I in data set [1] turned out to be 160 M⁻¹ s⁻¹. For the same molecule, in data set [2], the EC50 was greater than 320 µM. This molecule also gave a CC50 in data set [3] greater than 320 µM.
In the case of `CCOC(=O)/C=C/[C@H](CCC(N)=O)NC(=O)[C@H](Cc1ccc(F)cc1)NC(=O)[C@@H](NC(=O)SC1CCCC1)C(C)C` [Compound 184], the kobs/I in data set [1] is listed as 59,900 M-1 sec-1. For the same molecule, the EC50 in data set [2] is 0.19 µM. In data set [3], this molecule showed a CC50 greater than 100 µM.
As to `CCOC(=O)/C=C/[C@H](CCC(N)=O)NC(=O)[C@H](Cc1ccccc1)NC(=O)[C@H](CC(C)C)NC(=O)c1ccccc1` [Compound 67], the kobs/I in data set [1] is listed as 9,600 M-1 sec-1. Also, the EC50 in data set [2] was 5.2 µM. The same molecule gave a CC50 in data set [3] greater than 320 µM.
As for `CC(C)C[C@H](NC(=O)OCc1ccccc1)C(=O)N[C@@H](Cc1ccccc1)C(=O)N[C@H](/C=C/C(=O)N1CCc2cccc(S(C)(=O)=O)c21)CCC(N)=O` [Compound 95], the kobs/I in data set [1] is less than 1000 M⁻¹ s⁻¹. The EC50 in data set [2] was greater than 320 µM. Further, the CC50 in data set [3] (setting [4]) is greater than 320 µM.
For `CC(C)C[C@H](NC(=O)OCc1ccccc1)C(=O)N[C@@H](Cc1ccccc1)C(=O)N[C@H](/C=C/C(=O)OC1CCCC1)CCC(N)=O` [Compound 18, Cyclopentyl-3-(CBZ-L-Leu-L-Phe-L-Gln)-E-Propenoate], in data set [1], the Ki turned out to be 15.3 µM and the kobs/I is listed as 7,700 M-1 sec-1. The EC50 in data set [2] was found to be 0.64 µM. Moreover, the CC50 in data set [3] is greater than 100 µM.
Regarding `CC(C)C[C@H](NC(=O)OCc1ccccc1)C(=O)N[C@@H](Cc1ccccc1)C(=O)N[C@H](/C=C/C(=O)O)CCC(N)=O` [Compound 15, 3-(CBZ-L-Leu-L-Phe-L-Gln)-E-Propenoic Acid], in data set [1], the “INHIB (percent inhibition)” value is 55(50) percent and the kobs/I was found to be 27 M⁻¹ s⁻¹. Further, in data set [2], the concentration for a half-maximal effect (EC50) was greater than 100 µM. The same molecule gave a CC50 in data set [3] greater than 100 µM.
Consider `CCOC(=O)/C=C/[C@H](CCC(N)=O)NC(=O)[C@H](Cc1ccccc1)NC(=O)[C@@H](NC(=O)SC1CCCC1)C(C)(C)SC` [Compound 178, Ethyl-3-[Cyclopentylthiocarbonyl-L-(S-Me-Pen)-L-Phe-L-Gln]-E-Propenoate], for which the kobs/I in data set [1] is 286,300 M-1 sec-1. In addition, the EC50 in data set [2] is 0.1 µM. Further, the CC50 in data set [3] was greater than 100 µM.
